Data published in patent publication US10782295B2, “Cysteine-reactive ligand discovery in proteomes” (THE SCRIPPS RESEARCH INSTITUTE, priority 2013, dated 2020).

Experiments:
[1] = competitive isoTOP-ABPP, proteome-wide cysteine reactivity; format: binding, human; details: for proteome reactivity profile, high sensitivity (R>5) cysteine targets: 100 μM LDE, 60 min
Procedure: (§1) Here, we envisioned that isoTOP-ABPP could be advanced to discover and quantify reactions between cysteines in proteomes and any electrophilic compound. In this advanced, ‘competitive’ version of isoTOP-ABPP (FIG. 1a), a proteome is treated with an electrophile (experimental sample) or DMSO (control sample). Both proteomic samples are then labeled with the IA probe and conjugated by CuAAC to light and heavy azide-biotin tags, respectively. The light and heavy samples are then mixed and subjected to our described isoTOP-ABPP protocol for enrichment, identification, and quantification of IA-labeled cysteines^30. Electrophile-modified cysteines are quantified by measuring the MS1 chromatographic peak ratios (R values) for heavy (DMSO-treated) over light (electrophile-treated) samples, with higher R values reflecting greater sensitivity to the electrophile. In this format, competitive isoTOP-ABPP can assay electrophiles against 1000+ cysteines in parallel directly in native proteomes without requiring any chemical modification to the electrophiles themselves.
(§2) Competitive isoTOP-ABPP experiments were performed in quadruplicate using the soluble proteome of the human breast cancer cell line MDA-MB-231 cell line. Proteomes were treated with 100 μM HNE, 15d-PGJ2, or 2-HD, for 60 minutes, followed by the IA-probe (100 μM, 60 min) A total of ˜1400 cysteine reactivities were quantified across the aggregate data set, with at least 900 cysteine reactivities quantified for each LDE (FIG. 2a) more than 750 of which were quantified for all the three electrophiles.
The MDA-MB-231 cell proteome was treated with varying concentrations of HNE (5, 10, 50, 100 and 500 μM) for 60 min and then the IA-labeling profile of each reaction was quantitatively compared to a DMSO-control sample by isoTOP-ABPP.
By combining the R values at all 5 HNE concentrations, we could extrapolate IC50 values for […] of IA probe-labeling for ˜700 of the 1100 cysteines (FIG. 3a).
HNE was purchased from EMD biosciences, 15d-PGJ2 was purchased from Cayman Chemicals and 2-HD was purchased from Santa Cruz Biotechnology. Proteome samples were diluted to a 4 mg protein/mL solution in PBS. For each profiling experiment, one aliquot of the proteome sample (0.5 mL) was treated with 100 μM of LDE using 5 μL of a 10 mM stock and the other aliquot was treated with 5 μL of either ethanol (for HNE and 15d-PGJ2) or DMSO (for 2-HD) as control. For the concentration-dependent profiling experiments using HNE, aliquots of the proteomes (0.5 mL each) were treated with 5, 10, 50, 100 and 500 μM of HNE using 5 μL of 0.5, 1.0, 5, 10 and 50 mM of stock solution, respectively. […]

[2] = system: AHSG; assay: competitive isoTOP-ABPP, MDA-MB-231 soluble proteome; format: binding, human; details: 100 μM LDE, 60 min; peptide C*DSSPDSAEDVR
Procedure: as §1, §2
HNE was purchased from EMD biosciences, 15d-PGJ2 was purchased from Cayman Chemicals and 2-HD was purchased from Santa Cruz Biotechnology. Proteome samples were diluted to a 4 mg protein/mL solution in PBS. […]
IA-probe labeled peptides were identified by SEQUEST2 and DTASelect3, and the quantification of heavy/light ratios (isoTOP-ABPP ratios, R) was performed by an in-house software (CIMAGE) as previously described. […]

[3] = molecular target: T1, MMS19 (Homo sapiens, UniProt Q96T76); assay: as above; format: binding; details: 60 min; for R value (isoTOP-ABPP ratio heavy/light) for IA-labeled cysteine of MMS19: 100 μM LDE, peptide LMGLLSDPELGPAAADGFSLLMSDC*TDVLTR
T1 construct: directly in native proteomes; endogenous in cells; host or cells: MDA-MB-231
T1 sequence (Q96T76 1-1030): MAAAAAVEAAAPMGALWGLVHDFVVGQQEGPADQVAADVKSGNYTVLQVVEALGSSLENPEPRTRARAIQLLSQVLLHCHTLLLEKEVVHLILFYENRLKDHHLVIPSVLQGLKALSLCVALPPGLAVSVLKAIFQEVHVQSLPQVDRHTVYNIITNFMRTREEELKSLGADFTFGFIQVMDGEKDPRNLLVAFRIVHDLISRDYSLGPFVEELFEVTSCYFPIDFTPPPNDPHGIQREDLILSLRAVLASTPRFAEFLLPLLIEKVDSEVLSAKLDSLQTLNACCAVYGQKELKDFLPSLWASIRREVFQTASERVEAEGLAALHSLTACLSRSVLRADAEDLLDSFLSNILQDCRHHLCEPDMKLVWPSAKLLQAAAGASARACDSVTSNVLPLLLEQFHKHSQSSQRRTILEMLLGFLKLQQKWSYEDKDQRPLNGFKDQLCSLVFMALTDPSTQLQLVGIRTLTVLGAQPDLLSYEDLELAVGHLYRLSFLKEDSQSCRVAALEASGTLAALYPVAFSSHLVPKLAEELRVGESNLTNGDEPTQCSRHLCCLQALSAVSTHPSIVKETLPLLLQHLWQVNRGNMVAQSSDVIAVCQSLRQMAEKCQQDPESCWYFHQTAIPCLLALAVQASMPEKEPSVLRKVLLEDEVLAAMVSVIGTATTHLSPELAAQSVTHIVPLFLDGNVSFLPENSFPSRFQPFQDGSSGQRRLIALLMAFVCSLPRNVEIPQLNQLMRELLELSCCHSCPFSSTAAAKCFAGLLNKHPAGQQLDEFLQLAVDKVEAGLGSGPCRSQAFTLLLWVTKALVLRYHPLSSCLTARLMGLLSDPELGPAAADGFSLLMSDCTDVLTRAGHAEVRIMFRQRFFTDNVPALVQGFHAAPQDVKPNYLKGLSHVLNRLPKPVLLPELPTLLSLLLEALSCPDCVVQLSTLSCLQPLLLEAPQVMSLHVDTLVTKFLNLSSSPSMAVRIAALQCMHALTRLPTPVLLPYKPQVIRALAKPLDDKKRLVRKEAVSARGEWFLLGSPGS

Q: Which “proteome reactivity profile, high sensitivity (R>5) cysteine targets” value (“proteome reactivity profile” for short) [1] does the source give for `CCCCCCCCCCCCC/C=C/C=O` [2-HD, 2-trans-hexadecenal] here?
A: no detectable high sensitivity (R>5) targets

Q: What about the “R value (isoTOP-ABPP ratio heavy/light) for IA-labeled cysteine of AHSG” value [2] of the same compound?
A: 1.12

Q: And the “R value (isoTOP-ABPP ratio heavy/light) for IA-labeled cysteine of MMS19” value [3]?
A: 1.1

Q: With `CCCCCC(O)/C=C/C=O` (centres unmarked) [4-HNE, 4-Hydroxynonenal] as the compound, how does the “proteome reactivity profile” value [1] read?
A: targeting several cysteines in the proteome

Q: What about the IC50 ([1]; ~700 of 1100 cysteines, 5 HNE concentrations, read-out: IC50 for blockade of IA probe-labeling, vast majority of cysteines) of the same compound?
A: > 100 µM

Q: And the “R value (isoTOP-ABPP ratio heavy/light) for IA-labeled cysteine of AHSG” value [2]?
A: 1.35

Q: What about the “R value (isoTOP-ABPP ratio heavy/light) for IA-labeled cysteine of MMS19” value [3] of the same compound?
A: 1.78

Q: With `CCCCC/C=C/C=C1/C(=O)C=C[C@@H]1C/C=C\CCCC(=O)O` [PGJ2, 15-deoxy-Δ12,14-prostaglandin J2] as the compound, how does the “proteome reactivity profile” value [1] read?
A: targeting several cysteines in the proteome

Q: What about the “R value (isoTOP-ABPP ratio heavy/light) for IA-labeled cysteine of AHSG” value [2] of the same compound?
A: 5.73

Q: And the “R value (isoTOP-ABPP ratio heavy/light) for IA-labeled cysteine of MMS19” value [3]?
A: >15

Q: And the “blockade of IA-probe labeling of Cys848 of MMS19” value ([3]; 100 μM)?
A: completely blocked
